Each structure is given as a SMILES string.

RP-LC retention time data for 79 molecules are collected here from the METLIN SMRT retention time set (Domingo-Almenara et al. 2019).

The data set is described as follows: gradient 5% acetonitrile 3 min, to 50% in 2 min, to 85% in 15 min, held 3 min, 100 µL/min. The conditions noted are these: column: Zorbax Extend-C18 2.1 x 50 mm; eluents: water / acetonitrile, 0.1% formic acid. The essentials:
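Retention times of pure standards were taken from adduct peaks that were selected by computer and manually inspected. Over 3 months, mixtures of ~100 molecules were run by HPLC–quadrupole time-of-flight mass spectrometry in positive and negative ionization mode. The Zorbax Extend-C18 column (2.1 × 50 mm, 1.8 μm) ran at 100 μL/min in water and acetonitrile, each containing 0.1% formic acid, with 40 μL dead volume and 900 μL dwell volume.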
The molecule `Cc1c(C(=O)NCC(C)C)cnn1-c1cc(-c2nc(C(C)(C)C)no2)ccn1` registered an RP-LC retention time of 1150 s.
Under `CCOc1ccccc1NC(=O)Cn1cccc(-c2nc(-c3ccc(Br)cc3)no2)c1=O` stands 1100 s; under `CCOc1ccc(N2C(=O)CC(c3ccc(OC)cc3)CC2=O)cc1`, 942 s.
`O=c1c2nnn(Cc3ccc(Cl)cc3)c2ncn1Cc1nc(-c2ccc3c(c2)OCO3)no1` yielded an RP-LC retention time of 982 s.
Under `Nc1ncnc(N2CCN(C(c3ccccc3)c3ccccc3)CC2)c1[N+](=O)[O-]` stands 698 s.
`CCC(=O)N1CCc2ccccc2C1C(=O)NCc1ccc(SC)cc1` (centres undefined) yielded an RP-LC retention time of 853 s.
Under `CC1CCN(S(=O)(=O)c2ccc(-c3nnc(C(=O)NCCN(C)C)o3)cc2)CC1` stands 670 s.
`COc1cc([C@@H]2c3cc4c(cc3[C@H](O)[C@@H](CO)[C@@H]2C(=O)NCc2cc(F)cc(F)c2)OCO4)cc(OC)c1OC`: the RP-LC retention time was 737 s.
The figure for `Cc1cccc(NC(=O)CN2C(=O)C3CCCCN3c3ccc(S(=O)(=O)N(C)C)cc32)c1` (centres undefined) is 607 s; for `Cn1ccnc1C(=O)N1CC(n2cc(C(=O)N3CCOCC3)nn2)C1` it is 581 s.
With `CCN(CC)c1nc2cc(C(=O)OC)ccc2c(=O)n1Cc1ccc(C)cc1`, the RP-LC retention time came to 1310 s.
In turn, `CC(C)(C)OC(=O)CN(c1ccc(F)cc1)S(=O)(=O)c1cccn2cnnc12` returned an RP-LC retention time of 776 s.
The figure for `Cc1cccc(NC(=O)N2CCC3(C2)C(=O)N(C)c2ccccc23)c1` (centres undefined) is 808 s; for `COCCc1noc(C2CN(S(=O)(=O)c3ccccc3)C2)n1` it is 751 s.
Take `CCc1nc2cc(-c3noc(-c4cccc(N(C)C)c4)n3)ccc2o1`: the RP-LC retention time stood at 1230 s.
The figure for `CCCn1cnnc1C1CCCCN1Cc1ccc(Br)o1` (centres undefined) is 599 s; for `O=C(Cn1cnc2nc(N3CCCC(C(=O)NC4CC4)C3)sc2c1=O)NCc1ccccc1` (centres undefined) it is 646 s; for `CC(C)c1nc(-c2ccc(C(=O)NCc3noc(COc4ccccc4)n3)cc2)no1` it is 998 s.
Under `COc1cccc(CNC(=O)CN2CCN(Cc3ccc(C)cc3)C(=O)C2=O)c1` stands 715 s; under `CCOc1ccc(NC(=O)N2CCN(Cc3nc4ccc(C)cc4o3)CC2)cc1`, 733 s; under `COc1ccc(NC(=O)Cn2c(=O)n(-c3ccc(C)cc3)c3ncccc32)c(OC)c1`, 872 s.
The figure for `CC1(C(=O)NCc2ccccc2)CCCN(C(=O)Nc2ccc(Br)cc2F)C1` (centres undefined) is 1030 s; for `O=C(c1[nH]c2ccccc2c1Sc1ccc(Cl)cc1)N1CCN(c2ccccn2)CC1` it is 825 s; for `CCN(CC)C(=O)N[C@H]1C[C@@H]2c3cccc4[nH]cc(c34)C[C@H]2N(C)C1` it is 679 s.
`Cc1ccccc1N1CCN(C(=O)c2cn3c(n2)CCCC3)CC1` yielded an RP-LC retention time of 668 s.
For `Cc1ccc(Cn2cc(-c3noc(-c4ccc5c(c4)OCO5)n3)nn2)cc1`, the RP-LC retention time stood at 1020 s.
Under `CCC(C(=O)NCc1ccco1)n1nc(C)c2c(C)n(-c3ccccc3)nc2c1=O` (centres undefined) stands 831 s; under `Cn1cc(CC(=O)N2CCN(c3ccccc3F)CC2)c2ccccc21`, 915 s.
For `CN(C)c1ccc(CNC(=O)[C@@]23CCCC[C@H]2N(CCc2ccccc2)C(=O)CC3)cc1`, the RP-LC retention time amounted to 634 s.
The figure for `CCCN1C(=O)CN(C2CCCCC2)C(=O)C1c1ccc(OC)c(OC)c1` (centres undefined) is 777 s; for `Cc1cc2nn(CC(=O)N3CCCc4ccccc43)c(=O)n2c(Nc2ccc(F)cc2)n1` it is 1060 s.
The figure for `COCCCNC(=O)Cn1nc(C)c2nn(-c3ccc(Cl)cc3)c(-n3cccc3)c2c1=O` is 887 s; for `CCc1nc(-c2cc(S(=O)(=O)N3CCC(C(=O)NC4CCCCCC4)CC3)c(C)s2)no1` it is 1070 s.
As for `CCCNc1cc(N2CCCC(CCC(=O)N3CCN(CC(C)C)CC3)C2)ncn1` (centres undefined), the RP-LC retention time amounted to 552 s.
The figure for `O=C(Nc1cc(-c2cccs2)nn1CCO)C1COc2ccccc2O1` (centres undefined) is 784 s; for `O=C(CSc1nnc(NC(=O)c2cccc([N+](=O)[O-])c2)s1)Nc1nccs1` it is 702 s.
The figure for `Cc1ccc(CNC(=O)C2CCCCC(=O)N2C)o1` (centres undefined) is 644 s; for `O=S(=O)(Nc1ccc(-c2noc(COc3ccc(F)cc3)n2)cc1)c1cccs1` it is 1040 s; for `O=C1c2ccccc2C(=O)c2c(O)c(NCCNCCO)cc(O)c21` it is 653 s.
Under `COc1ccc(NC(=O)c2cc(C(C)C)n(C3CCS(=O)(=O)C3)n2)cc1Cl` (centres undefined) stands 931 s; under `COc1ccc2nc(C(=O)NCc3cccc(F)c3)cn2n1`, 778 s; under `CCOc1ccccc1CN1C[C@@H]2C(=O)N(Cc3ccc4c(c3)OCO4)C(=O)[C@@H]2C1`, 727 s.
`COC(=O)CNC(=O)N(C)Cc1nc2cc(C(=O)N3CCCC3)ccc2n1C` returned an RP-LC retention time of 566 s.
Under `CCOc1ccc(CC(=O)N2C[C@@H]3C[C@H](NC(=O)c4cccs4)[C@H]2C3)cc1` stands 782 s; under `Cc1cc(C)cc(NC(=O)CN2CCN(Cc3ccc(F)cc3)C(=O)C2=O)c1`, 798 s; under `CC(C)CN1C(=O)c2cccn2CC1C(=O)NCc1ccco1` (centres undefined), 733 s.
The figure for `Cc1ccc(NC(=O)C2CC(=O)N(c3n[nH]c4ccccc34)C2)nc1` (centres undefined) is 594 s.
The figure for `CC(NC(=O)Cc1cn(C)c2ncccc12)c1ccccc1` (centres undefined) is 679 s.
`CCN(C(=O)C1C(=O)NC2(C)CC1c1ccccc1O2)c1ccccc1` (centres undefined): the RP-LC retention time is 820 s.
Under `CCCNC(=O)C1CCN(c2ccc(SCC(=O)Nc3cc(OC)ccc3OC)nn2)CC1` stands 662 s.
The figure for `Cc1ccc(NS(=O)(=O)c2cc3c(s2)CCN(C(=O)C2CC2)C3)cc1` is 849 s; for `O=C(Nc1ccc(-c2nnc3n2CCCC3)cc1)C1CCC1` it is 622 s.
Under `COc1cccc(CNC(=O)Cn2cnc3nc(N4CCC(C(=O)NC5CC5)CC4)sc3c2=O)c1` stands 646 s; under `COc1ccc(-c2cc(C(=O)N(C)C3CCCCC3)nn2C2CCS(=O)(=O)C2)cc1` (centres undefined), 924 s.
Consider `COCC1CCN(C(=O)COc2ccc(NC(=O)C3CC3)cn2)CC1`, for which the RP-LC retention time is 650 s.
`Cc1nc(-c2ccc(N3CCN(C(=O)c4ccccc4F)CC3)nc2)sc1C` gave an RP-LC retention time of 873 s.
Under `C=CCNc1nc(-c2ccc(Cl)cc2)cs1` stands 984 s; under `CC1(C)CC(O)CC(C)(C)N1CC(O)COCCOc1ccc(F)cc1` (centres undefined), 565 s; under `CCN1C(=O)c2cccnc2Sc2cc(CNC(=O)c3ccn(CC)n3)ccc21`, 697 s.
Take `Cc1nc(-c2cccnc2)n2c(=O)n(CCc3ccccc3)nc2c1C`: the RP-LC retention time turned out to be 786 s.
The figure for `Cc1nn(-c2nc(-c3ccc(Cl)cc3)cs2)c(C)c1CC(=O)N1CCCCC1` is 1260 s; for `O=C(C1CN(S(=O)(=O)c2ccccc2)CC12CCCCC2)N1CCOCC1` (centres undefined) it is 840 s; for `O=C(CN1CC=C(c2cnn(-c3ccccc3)c2)CC1)N1CCN(Cc2ccc3c(c2)OCO3)CC1` it is 591 s.
Under `Cc1noc(C)c1S(=O)(=O)N1CCC(Cc2ccc(COc3ccncc3)cc2)CC1` stands 831 s; under `CC(C)CCN1C(=O)CC[C@]2(C(=O)N3CCN(c4ccc(F)cc4)CC3)CCCC[C@@H]12`, 1010 s; under `CCN(CC)S(=O)(=O)c1ccc(C)c(NC(=O)c2ccccc2C(=O)O)c1`, 575 s.
The figure for `O=C(CN1C(=O)CC(c2cccs2)=Nc2ccccc21)NC1CCCCC1` is 884 s; for `COc1ccccc1CNC(=O)CCc1csc(NC(=O)c2ccc(F)cc2)n1` it is 792 s; for `O=C(NC1CC1)c1ccc(-c2ccsc2)nc1` it is 688 s.
`COC(=O)c1cccc(C(=O)N2CCN(c3ccccc3F)CC2)n1`: the RP-LC retention time turned out to be 777 s.
Under `Cc1cccc(C)c1NC(=O)Cn1nc2c(Oc3cccc(F)c3)nccn2c1=O` stands 825 s; under `Cn1c(CN2CCN(C(=O)NC(C)(C)C)CC2)nc2cc(C(=O)N3CCCC3)ccc21`, 602 s; under `CN(C)c1nc2ncn3c(=O)n(CC(=O)NC4CCc5ccccc54)nc3c2s1` (centres undefined), 864 s.
The figure for `Clc1cc(Cl)cc(-c2ccc(CNCc3ccco3)o2)c1` is 784 s; for `CCOC(=O)C1=C(CN2CCC(N3CCCCC3)CC2)NC(=O)NC1c1ccc(OC(C)C)cc1` (centres undefined) it is 605 s; for `COc1ccccc1CCC(=O)N1C[C@@H]2C[C@H](NC(=O)c3cccs3)[C@H]1C2` it is 782 s.
On to `CC(C)Cn1c(CCNC(=O)c2cccc(F)c2)nc2cccnc21`, for which the RP-LC retention time was determined as 709 s.
The figure for `CCC(C)Sc1nnc(NC(=O)C2CCN(C(=O)c3cccc(F)c3)CC2)s1` (centres undefined) is 877 s; for `CCn1ccc(C(=O)N2CCCC2c2ccccc2C)n1` (centres undefined) it is 870 s.
